PMC7966987, “Insights into the catalytic properties of the mitochondrial rhomboid protease PARL” (The Journal of Biological Chemistry, 2021)
Residues, ends and D or L forms follow the SMILES beside them.

T1: PARLΔ77 (Homo sapiens, UniProt Q9H300)
T1 construct: GFP-hexahistidine (behind a TEV cleavage site) (C, cleaved yes); made in house; host or cells: Pichia pastoris
T1 sequence (Q9H300 78-379): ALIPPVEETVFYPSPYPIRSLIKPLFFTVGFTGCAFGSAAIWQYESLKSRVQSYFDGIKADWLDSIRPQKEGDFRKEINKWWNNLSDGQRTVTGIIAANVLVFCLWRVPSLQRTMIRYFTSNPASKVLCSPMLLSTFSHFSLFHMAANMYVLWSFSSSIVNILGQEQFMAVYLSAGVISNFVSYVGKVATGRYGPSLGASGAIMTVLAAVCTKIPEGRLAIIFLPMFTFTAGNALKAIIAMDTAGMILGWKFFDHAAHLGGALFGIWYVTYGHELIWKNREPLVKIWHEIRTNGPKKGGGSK


Tests used:
[1] = system: bacterial rhomboid proteases; details: cited from earlier work
From the text: (§1) Rhomboids were initially discovered to be serine proteases because the first identified rhomboid protease from Drosophila, Rhomboid-1, was sensitive to serine protease inhibitors dichloroisocoumarin (DCI) and tosyl phenylalanyl chloromethylketone (TPCK) ([44]).

[2] = molecular target: T1, PARLΔ77; assay: Inhibition by commercial serine protease inhibitors, PARLΔ77 in proteoliposomes; format: biochemical; details: 100 μM inhibitor, in PL, IQ-PINK1 and IQ-PGAM5 substrates, N=3
Protocol: (§2) We examined whether inhibitors belonging to three standard serine protease inhibitors families—sulfonyl fluoride (PMSF), chloromethyl ketone (TPCK), and coumarin (DCI)—were able to inhibit PARL when tested with IQ-PINK1 and IQ-PGAM5 substrates. […] Overall this supports the view that for PARL, specific inhibitors will need to be developed similar to bacterial rhomboid proteases ([48], [49]).
The activity assay with PARL reconstituted in PL was performed the same way as for PARL in DDM with the only difference being the activity buffer, where DDM was omitted (50 mM Tris-HCl pH 7.0, 150 mM NaCl, 10% glycerol). For inhibitory studies, PARL in PL (0.8 μM) was incubated with inhibitors (20 μM) in activity buffer for 30 min, and then the proteolytic reaction was started with the addition of substrate (5 μM). […]
(§3) inhibitors. Bar graphs for percent activity of detergent solubilized (A) and proteoliposome reconstituted (B) PA R L Δ77with100µMofinhibitoradded prior to the addition of IQ-PINK1 and IQ-PGAM5 substrates. Experiments were conducted in duplicate with an N=3.
(§4) Individual data points (black dots) are indicated on the bar graphs, representing the mean […]

[3] = molecular target: T1, PARLΔ77; assay: Inhibition by commercial serine protease inhibitors, PARLΔ77 in detergent; format: biochemical; details: 100 μM inhibitor, IQ-PINK1 and IQ-PGAM5 substrates, N=3
From the text: as §2, with “[49]). […]” for “[49]).”
as §3, §4

[4] = system: Rhomboid-1; details: cited from earlier work
From the text: as §1

[5] = molecular target: T1, PARLΔ77; assay: Competition assay, IQ-Smac/Diablo(51-60) cleavage in presence of PINK1(89-111); format: biochemical; details: read-out: Ki (Kd represented by Ki of the PARL-PINK1(89-111) complex)
From the text: (§5) To determine if substrates bind to the same site, we performed competition binding assays using fluorescent IQ-PGAM5^20–29 and IQ-Smac/Diablo^51–60 as the main substrates and nonfluorescent PINK1^89–111 (^89[…]^111) as a competing substrate (Fig. 4). The longer version of substrate was used in this assay in order to reveal possible exosite interactions of substrate with PARL, assuming that regions surrounding the cleavage site might be involved in a primary substrate binding with a putative exosite.
(§6) Fluorescence detection of each substrate concentration in the presence of corresponding PINK189-111 without enzyme was used as a negative control. Initial velocities were determined for each substrate concentration. Michaelis–Menten plots were subjected to global fit to distinguish the kinetic model and determine the kinetic parameters. Values are represented as mean ± SEM (N = 3). […] The only names printed in the panels are the substrates on the x-axis, and KM and kcat are assigned to them.
(§7) The Michaelis–Menten curves of PARL-mediated cleavage of IQ-PGAM5^20–29 and IQ-Smac/Diablo^51–60 were obtained in the presence of different concentrations of PINK1^89–111.

[6] = molecular target: T1, PARLΔ77; assay: Competition assay, IQ-PGAM5(20-29) cleavage in presence of PINK1(89-111); format: biochemical; details: read-out: Ki (Kd represented by Ki of the PARL-PINK1(89-111) complex)
From the text: as §5, §6, §7

[7] = molecular target: PARLΔ77 (β-cleavage form of human PARL) (human) (UniProt Q9H300); assay: competitive inhibition of FRET peptide cleavage (enzyme kinetics); PARLΔ77 0.8 μM; IQ-Smac/Diablo 51-60 (0.3–25 μM) as main substrate; nonfluorescent PINK1 89-111 at 2.5, 5, 10, 20 μM; Michaelis–Menten plots fitted globally, competitive model; Kd represented by Ki
PARLΔ77 (β-cleavage form of human PARL) (human), sequence (Q9H300 77-379, stated change not applied): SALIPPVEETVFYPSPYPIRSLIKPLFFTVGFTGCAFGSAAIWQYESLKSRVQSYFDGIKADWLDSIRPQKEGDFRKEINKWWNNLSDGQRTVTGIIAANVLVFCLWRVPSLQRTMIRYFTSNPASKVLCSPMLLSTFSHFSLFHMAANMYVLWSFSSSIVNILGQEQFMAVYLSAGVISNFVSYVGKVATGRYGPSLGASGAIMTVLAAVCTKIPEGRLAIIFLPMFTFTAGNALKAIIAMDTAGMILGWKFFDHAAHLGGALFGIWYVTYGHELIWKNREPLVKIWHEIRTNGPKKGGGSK

[8] = molecular target: PARLΔ77 (β-cleavage form of human PARL) (human) (UniProt Q9H300); assay: competitive inhibition of FRET peptide cleavage (enzyme kinetics); PARLΔ77 0.8 μM; IQ-PGAM5 20-29 (0.13-19 μM) as main substrate; nonfluorescent PINK1 89-111 at 2.5, 5, 10, 20 μM; Michaelis–Menten plots fitted globally, competitive model; Kd represented by Ki

| Molecule | inhibition of PARL activity [2] | inhibition of PARL activity [3] | inhibition of Drosophila Rhomboid-1 [4] | other results |
| --- | --- | --- | --- | --- |
| O=S(=O)(F)Cc1ccccc1 [PMSF] | not inhibited | not inhibited |  | inhibition of bacterial rhomboid proteases [1]: does not act on bacterial rhomboid proteases |
| O=c1oc(Cl)c(Cl)c2ccccc12 [DCI, dichloroisocoumarin] | largest inhibitory effect | largest inhibitory effect | sensitive |  |
| CC[C@H](C)[C@H](NC(=O)[C@H](CC(C)C)NC(=O)CNC(=O)[C@H](CC(C)C)NC(=O)CNC(=O)[C@H](CC(C)C)NC(=O)CNC(=O)[C@H](Cc1ccccc1)NC(=O)[C@H](C)NC(=O)[C@H](CC(C)C)NC(=O)[C@H](Cc1ccccc1)NC(=O)[C@@H](NC(=O)[C@H](C)NC(=O)[C@H](CCCNC(=N)N)NC(=O)CNC(=O)[C@H](CS)NC(=O)[C@@H]1CCCN1C(=O)CNC(=O)[C@H](C)NC(=O)[C@H](CS)NC(=O)CNC(=O)[C@H](Cc1c[nH]c2ccccc12)NC(=O)[C@H](C)NC(=O)[C@H](CO)NC(=O)CN)C(C)C)C(=O)O [PINK1^89–111] (H-GSAWGCAGPCGRAVFLAFGLGLGLI-OH) |  |  |  | Ki [5]: 2300 ± 700 nM; Ki [6]: 2400 ± 600 nM |
| Cc1ccc(S(=O)(=O)N[C@@H](Cc2ccccc2)C(=O)CCl)cc1 [TPCK, tosyl phenylalanyl chloromethylketone] | partially inhibits | partially inhibits | sensitive |  |
| AWGCAGPCGRAVFLAFGLGLGLI [PINK1 TM domain (amino acids 89–111), nonfluorescent] |  |  |  | Ki [7]: 2300 nM; Ki [8]: 2400 nM |
